What was measured:
Format in all cases: in vivo
Details in all cases: evaluated after 13 days
[1] = test system: Amaranthus retoflexus (AMARE); assay: Post-emergence herbicide test, glasshouse, percentage damage
In short: (§1)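 Pots of standard soil were sown and kept in a glasshouse at 24/16 °C day/night, 14 h light, 65% humidity; plants were sprayed one day after sowing (pre-emergence) or after 8 days (post-emergence) at 500 g/ha unless otherwise stated. Damage was scored after 13 days on a five-point scale (5=81-100%; 1=0-20%).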

[2] = test system: Echinochloa crus-galli (ECHCG); assay: as above
In short: as §1

[3] = test system: Ipomoea hederacea (IPOHE); assay: as above
In short: as §1

Lolium perenne (LOLPE) [4] = assay: as above
In short: as §1

Setaria faberi (SETFA) [5] = assay: as above
In short: as §1

Solanum nigrum (SOLNI) [6] = assay: as above
In short: as §1

[7] = test system: Amaranthus retoflexus (AMARE); assay: Pre-emergence herbicide test, glasshouse, percentage damage
In short: as §1

[8] = test system: Echinochloa crus-galli (ECHCG); assay: as above
In short: as §1

[9] = test system: Ipomoea hederacea (IPOHE); assay: as above
In short: as §1

Lolium perenne (LOLPE) [10] = assay: as above
In short: as §1

Setaria faberi (SETFA) [11] = assay: as above
In short: as §1

Solanum nigrum (SOLNI) [12] = assay: as above
In short: as §1

Structure (SMILES) | percentage damage caused to the plant, AMARE ([1]; 1000 g/ha) | percentage damage caused to the plant, ECHCG ([2]; 1000 g/ha) | percentage damage caused to the plant, IPOHE ([3]; 1000 g/ha) | percentage damage caused to the plant, LOLPE (Lolium perenne (LOLPE) [4]; 1000 g/ha) | percentage damage caused to the plant, SETFA (Setaria faberi (SETFA) [5]; 1000 g/ha) | percentage damage caused to the plant, SOLNI (Solanum nigrum (SOLNI) [6]; 1000 g/ha) | Pre-emergence Test AMARE percentage damage (five point scale) ([7]; rate 1000 g/ha) | Pre-emergence Test ECHCG percentage damage (five point scale) ([8]; rate 1000 g/ha) | Pre-emergence Test IPOHE percentage damage (five point scale) ([9]; rate 1000 g/ha) | Pre-emergence Test LOLPE percentage damage (five point scale) (Lolium perenne (LOLPE) [10]; rate 1000 g/ha) | Pre-emergence Test SETFA percentage damage (five point scale) (Setaria faberi (SETFA) [11]; rate 1000 g/ha) | Pre-emergence Test SOLNI percentage damage (five point scale) (Solanum nigrum (SOLNI) [12]; rate 1000 g/ha) | also measured
Fc1cccc(Oc2cc(OC(F)(F)F)ccn2)c1-c1cc(C(F)F)no1 [Compound A62] | 4 (4=61-80%) | 3 (3=41-60%) | 3 (3=41-60%) | 2 (2=21-40%) | 3 (3=41-60%) | 3 (3=41-60%) | 4 (4=61-80%) | 1 (1=0-20%) | 1 (1=0-20%) | 1 (1=0-20%) | 1 (1=0-20%) | 1 (1=0-20%) | –
Fc1cc(Cl)cnc1Oc1ccccc1-c1csc(Cl)c1 [Compound A69] | 3 (3=41-60%) | 4 (4=61-80%) | 2 (2=21-40%) | 1 (1=0-20%) | 3 (3=41-60%) | 4 (4=61-80%) | 3 (3=41-60%) | 1 (1=0-20%) | 1 (1=0-20%) | 1 (1=0-20%) | 1 (1=0-20%) | 1 (1=0-20%) | –
Fc1cc(Cl)cnc1Oc1ccccc1-c1ccsc1 [Compound A70] | 3 (3=41-60%) | 3 (3=41-60%) | 1 (1=0-20%) | 1 (1=0-20%) | 2 (2=21-40%) | 4 (4=61-80%) | 2 (2=21-40%) | 1 (1=0-20%) | 1 (1=0-20%) | 1 (1=0-20%) | 1 (1=0-20%) | 1 (1=0-20%) | –
COc1csc(-c2ccccc2Oc2ncc(Cl)cc2F)c1 [Compound A71] | 4 (4=61-80%) | 1 (1=0-20%) | 1 (1=0-20%) | 1 (1=0-20%) | 2 (2=21-40%) | 5 (5=81-100%) | 5 (5=81-100%) | 1 (1=0-20%) | 1 (1=0-20%) | 1 (1=0-20%) | 1 (1=0-20%) | 1 (1=0-20%) | –
Fc1cccc(Oc2ccc(C(F)F)cn2)c1-c1cc(C(F)F)no1 [Compound A77] | – | – | – | – | – | – | – | – | – | – | – | – | percentage damage caused to the plant, AMARE ([1]; 250 g/ha): 5 (5=81-100%); percentage damage caused to the plant, ECHCG ([2]; 250 g/ha): 2 (2=21-40%); percentage damage caused to the plant, IPOHE ([3]; 250 g/ha): 1 (1=0-20%); percentage damage caused to the plant, LOLPE (Lolium perenne (LOLPE) [4]; 250 g/ha): 2 (2=21-40%); percentage damage caused to the plant, SETFA (Setaria faberi (SETFA) [5]; 250 g/ha): 5 (5=81-100%); percentage damage caused to the plant, SOLNI (Solanum nigrum (SOLNI) [6]; 250 g/ha): 5 (5=81-100%); Pre-emergence Test AMARE percentage damage (five point scale) ([7]; rate 250 g/ha): 5 (5=81-100%); Pre-emergence Test ECHCG percentage damage (five point scale) ([8]; rate 250 g/ha): 2 (2=21-40%); Pre-emergence Test IPOHE percentage damage (five point scale) ([9]; rate 250 g/ha): 1 (1=0-20%); Pre-emergence Test LOLPE percentage damage (five point scale) (Lolium perenne (LOLPE) [10]; rate 250 g/ha): 2 (2=21-40%); Pre-emergence Test SETFA percentage damage (five point scale) (Setaria faberi (SETFA) [11]; rate 250 g/ha): 5 (5=81-100%); Pre-emergence Test SOLNI percentage damage (five point scale) (Solanum nigrum (SOLNI) [12]; rate 250 g/ha): 4 (4=61-80%)
